Data from patent US9770026B2, “Substituted pyrimidine compound and uses thereof” (Shenyang Sinochem Agrochemicals R&D Co., Ltd., priority 2012, dated 2017).

Columns and labels:
armyworm = assay: bioactivity test against armyworm, airbrush spray; format: in vivo; conditions: for pest or weed control at 600 µg/mL: 600 mg/L; for control (test results against armyworm): mortality after 72 h
Diamond back moth = assay: insecticidal activity against diamond back moth, airbrush spray; format: in vivo; conditions: for pest or weed control at 600 µg/mL / pest or weed control at 10 µg/mL / pest or weed control at 100 µg/mL: 72 h; for pest or weed control at 600 µg/mL: 600 mg/L; for pest or weed control at 10 µg/mL: 10 mg/L; for pest or weed control at 100 µg/mL: 100 mg/L; for control (test results against diamond back moth): mortality after 72 hrs
In short: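 Airbrush leaf-disc spray test: both faces of 2 cm cabbage discs received 0.5 ml of test solution at 0.7 kg/cm^2. Solutions were made in acetone:methanol (1:1) and brought to concentration with 0.1% Tween 80 in water. Ten second-instar larvae per disc, triplicates, were held at 25° C and 60˜70% R.H., with mortality recorded at 72 hrs.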

rice blast = assay: microbe, parasite or virus in culture; format: cell-based; conditions: Pyricularia oryzae; for inhibition at 25 ppm: read-out: inhibition rate against rice blast, 25 ppm, in vitro
wheat powdery mildew = assay: protectant activity in vivo against wheat powdery mildew; conditions: for pest or weed control at 400 µg/mL / pest or weed control at 6.25 µg/mL / pest or weed control at 25 µg/mL / pest or weed control at 100 µg/mL: Triticum aestivum, 168 h, protectant activity; for pest or weed control at 400 µg/mL: read-out: control effect against wheat powdery mildew (%), 400 mg/L; for pest or weed control at 6.25 µg/mL: read-out: control effect against wheat powdery mildew (%), 6.25 mg/L; for pest or weed control at 25 µg/mL: read-out: control effect against wheat powdery mildew (%), 25 mg/L; for pest or weed control at 100 µg/mL: read-out: control effect against wheat powdery mildew (%), 100 mg/L
carmine spider mite = assay: bioactivity test against carmine spider mite, airbrush spray; format: in vivo; conditions: for pest or weed control at 10 µg/mL / pest or weed control at 100 µg/mL / pest or weed control at 600 µg/mL: Tetranychus cinnabarinus, 72 h, read-out: Insecticidal activity against carmine spider mite (% ); for control against carmine spider mite: mortality after 72 hrs
In short: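 Broadbean seedlings infested with adult mites were sprayed with compound (acetone/methanol stock diluted in 0.1% Tween 80 water) by airbrush at 0.7 kg/cm^2, 0.5 ml. Three replicates were run. Mortality was scored after 72 hrs.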

corn rust = assay: protectant activity in vivo against corn rust; conditions: for pest or weed control at 400 µg/mL / pest or weed control at 0.4 µg/mL / pest or weed control at 1.6 µg/mL / pest or weed control at 6.25 µg/mL / pest or weed control at 25 µg/mL / pest or weed control at 100 µg/mL: Zea mays, 168 h, protectant activity; for pest or weed control at 400 µg/mL: read-out: control effect against corn rust (%), 400 mg/L; for pest or weed control at 0.4 µg/mL: read-out: control effect against corn rust (%), 0.4 mg/L; for pest or weed control at 1.6 µg/mL: read-out: control effect against corn rust (%), 1.6 mg/L; for pest or weed control at 6.25 µg/mL: read-out: control effect against corn rust (%), 6.25 mg/L; for pest or weed control at 25 µg/mL: read-out: control effect against corn rust (%), 25 mg/L; for pest or weed control at 100 µg/mL: read-out: control effect against corn rust (%), 100 mg/L
cucumber downy mildew = assay: protectant activity in vivo against cucumber downy mildew; conditions: Cucumis sativus, 168 h, protectant activity; for pest or weed control at 25 µg/mL: read-out: control effect against cucumber downy mildew (%), 25 mg/L; for pest or weed control at 50 µg/mL: read-out: control effect against cucumber downy mildew (%), 50 mg/L; for pest or weed control at 100 µg/mL: read-out: control effect against cucumber downy mildew (%), 100 mg/L; for pest or weed control at 400 µg/mL: read-out: control effect against cucumber downy mildew (%), 400 mg/L
[1] = test system: Green peach aphids (Myzus Persicae Sulzer); assay: bioactivity test against green peach aphid, airbrush foliar spray; format: in vivo; conditions: for pest or weed control at 600 µg/mL / pest or weed control at 2.5 µg/mL / pest or weed control at 5 µg/mL / pest or weed control at 10 µg/mL / pest or weed control at 100 µg/mL: Myzus persicae, foliar, 48 h, read-out: Insecticidal activity against peach aphid (%); for pest or weed control at 600 µg/mL / pest or weed control at 2.5 µg/mL / pest or weed control at 5 µg/mL / pest or weed control at 10 µg/mL / pest or weed control at 100 µg/mL / Insecticidal activity against peach aphid (%): contrastive test; for control (test results against green peach aphid): death rate after 48 hrs
In short: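 Aphids (15-30 per cabbage leaf disc) on moist filter paper were airbrush-sprayed at 10 psi, 0.5 mL, with compound from acetone:methanol (1:1) diluted in water with 0.1% tween 80. Held at 25±1 C, 60±5% RH; survivors counted after 48 hrs to give death rates.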

[2] = 72 h, read-out: Insecticidal activity against armyworm (%)

## CC(Cl)c1ncnc(NCc2ccc(Oc3ccc(C(F)(F)F)cn3)cc2)c1Cl (centres unmarked) [CK43, reference compound]
armyworm; [2]
  pest or weed control at 600 µg/mL: 0%
Diamond back moth
  pest or weed control at 600 µg/mL: 0%
Rice blast
  inhibition at 25 ppm: < 50%
Wheat powdery mildew
  pest or weed control at 400 µg/mL: 20%
Carmine spider mite; 10 mg/L, contrastive test
  pest or weed control at 10 µg/mL: 16%
Carmine spider mite; 100 mg/L, contrastive test
  pest or weed control at 100 µg/mL: 29%
Carmine spider mite; 600 mg/L, contrastive test
  pest or weed control at 600 µg/mL: 74%
Corn rust
  pest or weed control at 400 µg/mL: 85%
Cucumber downy mildew
  pest or weed control at 25 µg/mL: 0%
  pest or weed control at 50 µg/mL: 20%
  pest or weed control at 100 µg/mL: 40%
  pest or weed control at 400 µg/mL: 100%
[1]; 600 mg/L
  pest or weed control at 600 µg/mL: 0%

## FC(F)(F)c1ccc(Oc2ccc(CCNc3ncnc4ccccc34)cc2)cc1 [CK11, reference compound]
armyworm; [2]
  pest or weed control at 600 µg/mL: 29%
Diamond back moth
  pest or weed control at 10 µg/mL: 5%
  pest or weed control at 100 µg/mL: 55%
  pest or weed control at 600 µg/mL: 86%
Rice blast
  inhibition at 25 ppm: 0%
Wheat powdery mildew
  pest or weed control at 6.25 µg/mL: 0%
  pest or weed control at 25 µg/mL: 40%
  pest or weed control at 100 µg/mL: 60%
  pest or weed control at 400 µg/mL: 100%
Cucumber downy mildew
  pest or weed control at 25 µg/mL: 0%
  pest or weed control at 50 µg/mL: 0%
  pest or weed control at 100 µg/mL: 30%
  pest or weed control at 400 µg/mL: 85%
[1]; 2.5 mg/L
  pest or weed control at 2.5 µg/mL: 0%
[1]; 5 mg/L
  pest or weed control at 5 µg/mL: 25%
[1]; 10 mg/L
  pest or weed control at 10 µg/mL: 85%
[1]; 100 mg/L
  pest or weed control at 100 µg/mL: 98%
[1]; 600 mg/L
  pest or weed control at 600 µg/mL: 100%

## CCC(Nc1ncnc(C)c1Cl)c1ccc(Oc2ccc(C(F)(F)F)cn2)cc1 (centres unmarked) [CK41, reference compound]
armyworm; 72 h, 10 mg/L, read-out: Insecticidal activity against armyworm (%)
  pest or weed control at 10 µg/mL: 0%
armyworm; 72 h, 100 mg/L, read-out: Insecticidal activity against armyworm (%)
  pest or weed control at 100 µg/mL: 0%
armyworm; [2]
  pest or weed control at 600 µg/mL: 100%
Diamond back moth
  pest or weed control at 10 µg/mL: 0%
  pest or weed control at 100 µg/mL: 53%
  pest or weed control at 600 µg/mL: 86%
Rice blast
  inhibition at 25 ppm: < 50%
Wheat powdery mildew
  pest or weed control at 6.25 µg/mL: 0%
  pest or weed control at 25 µg/mL: 50%
  pest or weed control at 100 µg/mL: 70%
  pest or weed control at 400 µg/mL: 100%
Carmine spider mite; 10 mg/L, contrastive test
  pest or weed control at 10 µg/mL: 0%
Carmine spider mite; 100 mg/L, contrastive test
  pest or weed control at 100 µg/mL: 99%
Carmine spider mite; 600 mg/L, contrastive test
  pest or weed control at 600 µg/mL: 100%
Corn rust
  pest or weed control at 0.4 µg/mL: 0%
  pest or weed control at 1.6 µg/mL: 20%
  pest or weed control at 6.25 µg/mL: 80%
  pest or weed control at 25 µg/mL: 90%
  pest or weed control at 100 µg/mL: 100%
  pest or weed control at 400 µg/mL: 100%
[1]; 2.5 mg/L
  pest or weed control at 2.5 µg/mL: 0%
[1]; 5 mg/L
  pest or weed control at 5 µg/mL: 15%
[1]; 10 mg/L
  pest or weed control at 10 µg/mL: 23%
[1]; 100 mg/L
  pest or weed control at 100 µg/mL: 97%
[1]; 600 mg/L
  pest or weed control at 600 µg/mL: 100%

## CCc1ncnc(NCCc2ccc(Oc3ccc(C(F)(F)F)cn3)cc2)c1Cl [Compound I-6758]
armyworm; 100 ppm
  control (test results against armyworm): 100%
armyworm; 600 ppm
  control (test results against armyworm): 100%
Diamond back moth; 100 ppm
  control (test results against diamond back moth): 100%
Diamond back moth; 600 ppm
  control (test results against diamond back moth): 100%
Rice blast; read-out: inhibition rate against rice blast, 8.3 ppm, in vitro
  inhibition at 8.3 ppm: 80 to 99%
Wheat powdery mildew; 100 ppm
  protectant activity against wheat powdery mildew in vivo: 100%
Wheat powdery mildew; 400 ppm
  protectant activity against wheat powdery mildew in vivo: 100%
Carmine spider mite; 2.5 mg/L
  Insecticidal activity against carmine spider mite (% ): 79%
Carmine spider mite; 5 mg/L
  Insecticidal activity against carmine spider mite (% ): 82%
Carmine spider mite; 10 mg/L, contrastive test
  Insecticidal activity against carmine spider mite (% ): 99%
Carmine spider mite; 100 mg/L, contrastive test
  Insecticidal activity against carmine spider mite (% ): 100%
Carmine spider mite; 600 mg/L, contrastive test
  Insecticidal activity against carmine spider mite (% ): 100%
Carmine spider mite; 100 ppm
  control against carmine spider mite: 100%
Carmine spider mite; 600 ppm
  control against carmine spider mite: 100%
Corn rust; 100 ppm
  protectant activity against corn rust in vivo: 100%
Corn rust; 400 ppm
  protectant activity against corn rust in vivo: 100%
[1]; 1.25 mg/L
  Insecticidal activity against peach aphid (%): 89%
[1]; 2.5 mg/L
  Insecticidal activity against peach aphid (%): 100%
[1]; 5 mg/L
  Insecticidal activity against peach aphid (%): 100%
[1]; 10 mg/L
  Insecticidal activity against peach aphid (%): 100%
[1]; 100 mg/L
  Insecticidal activity against peach aphid (%): 100%
[1]; 600 mg/L
  Insecticidal activity against peach aphid (%): 100%
[1]; 2.5 ppm
  control (test results against green peach aphid): 100%
[1]; 5 ppm
  control (test results against green peach aphid): 100%
[1]; 10 ppm
  control (test results against green peach aphid): 100%
[1]; 100 ppm
  control (test results against green peach aphid): 100%
[1]; 600 ppm
  control (test results against green peach aphid): 100%

## CCc1ncnc(NCc2ccc(Oc3ncc(C(F)(F)F)cc3Cl)cc2)c1Cl [CK38, reference compound]
armyworm; [2]
  pest or weed control at 600 µg/mL: 0%
Diamond back moth
  pest or weed control at 10 µg/mL: 5%
  pest or weed control at 100 µg/mL: 21%
  pest or weed control at 600 µg/mL: 100%
Rice blast
  inhibition at 25 ppm: 0%
Carmine spider mite; 10 mg/L, contrastive test
  pest or weed control at 10 µg/mL: 14%
Carmine spider mite; 100 mg/L, contrastive test
  pest or weed control at 100 µg/mL: 37%
Carmine spider mite; 600 mg/L, contrastive test
  pest or weed control at 600 µg/mL: 99%
Corn rust
  pest or weed control at 400 µg/mL: 0%
[1]; 10 mg/L
  pest or weed control at 10 µg/mL: 0%
[1]; 100 mg/L
  pest or weed control at 100 µg/mL: 24%
[1]; 600 mg/L
  pest or weed control at 600 µg/mL: 100%

## CCc1ncnc(NC(C)c2ccc(Oc3ncc(C(F)(F)F)cc3Cl)cc2)c1Cl (centres unmarked) [CK39, reference compound]
armyworm; [2]
  pest or weed control at 600 µg/mL: 0%
Diamond back moth
  pest or weed control at 10 µg/mL: 0%
  pest or weed control at 100 µg/mL: 20%
  pest or weed control at 600 µg/mL: 80%
Rice blast
  inhibition at 25 ppm: 0%
Carmine spider mite; 10 mg/L, contrastive test
  pest or weed control at 10 µg/mL: 16%
Carmine spider mite; 100 mg/L, contrastive test
  pest or weed control at 100 µg/mL: 37%
Carmine spider mite; 600 mg/L, contrastive test
  pest or weed control at 600 µg/mL: 100%
Corn rust
  pest or weed control at 0.4 µg/mL: 0%
  pest or weed control at 1.6 µg/mL: 10%
  pest or weed control at 6.25 µg/mL: 50%
  pest or weed control at 25 µg/mL: 80%
  pest or weed control at 100 µg/mL: 100%
  pest or weed control at 400 µg/mL: 100%
[1]; 5 mg/L
  pest or weed control at 5 µg/mL: 0%
[1]; 10 mg/L
  pest or weed control at 10 µg/mL: 2%
[1]; 100 mg/L
  pest or weed control at 100 µg/mL: 86%
[1]; 600 mg/L
  pest or weed control at 600 µg/mL: 100%
